Format in all cases: cell-based
Assay [1] concerns rat aorta smooth muscle cells. In words: LDH release assay. As to conditions: LL-37 30 μg/ml, 1, 3 and 7 h, n = 7, P < 0.05. As to the method: Confluent rat aorta smooth muscle cells cultured on 24-well plates were incubated for 1, 3, or 7 h in serum free DMEM in the absence (control) or presence of LL-37 (10 or 30 μg/ml). The lactate dehydrogenase (LDH) activity released into the medium was measured by using the in vitro toxicology assay kit (Tox-7, Sigma-Aldrich) according to the manufacturer's instructions. In short, the medium was centrifuged at 2000 × g for 4 min. The LDH in the supernatants converted a tetrazolium dye, which was measured spectrophotometrically at 490 nm. The LDH activity is expressed as % of total LDH activity of lysed cells.
(In general: LDH in the medium is a marker of cell lysis.)

For assay [2], the system named is human neutrophils. In words: Flow cytometry, FITC-annexin V / propidium iodide. As to conditions: LL-37 30 μg/ml, 30 and 120 minutes, not shown. As to the method: Human neutrophils were isolated from heparinized blood from healthy donors using the Polymorph isolation kit (Nycomed Pharma AS Diagnostics, Oslo, Norway). Following the manufacturer's instructions, whole blood was layered carefully on neutrophil isolation medium and centrifuged at 400 × g for 30 min at room temperature. After centrifugation the following fractions were apparent: mononuclear cells, neutrophils and erythrocyte pellet. The polymorphonuclear leukocytes layer was suspended in PBS, followed by 10 min centrifugation at 350 × g; residual erythrocytes were removed by hypotonic lysis. After two washes in PBS with centrifugation for 5 min at 250 × g, the pellet was suspended in Minimum essential medium (MEM) and neutrophils were counted using a hemocytometer. The concentration of cells was adjusted to 10^7 cells/ml.
Rat aorta smooth muscle cells were harvested from culture plates using trypsin/EDTA and washed in PBS once followed by a 2-h incubation in bicarbonate free MEM at 37°C using gentle end-over-end rotation. […] Fluorescence-activated cell sorter (FACS) analysis was performed immediately (Becton Dickinson FACS Calibur instrument). 10,000 cells/sample were counted, and results were evaluated by using the Cell Quest software (Becton Dickinson). […]
A general note: In flow cytometry, cells or beads pass a laser one at a time.

Assay [3] deals with rat aorta smooth muscle cells. The assay is described as follows: Flow cytometry, FITC-annexin V / propidium iodide. The note with it: LL-37 30 μg/ml. The protocol: Rat aorta smooth muscle cells were harvested from culture plates using trypsin/EDTA and washed in PBS once followed by a 2-h incubation in bicarbonate free MEM at 37°C using gentle end-over-end rotation. […] Staining was performed for 20 min on ice with FITC-annexin V (30 μg/ml) and propidium iodide (30 μg/ml, BD Pharmingen, San Diego, CA, USA) in calcium-containing PBS. Fluorescence-activated cell sorter (FACS) analysis was performed immediately (Becton Dickinson FACS Calibur instrument). 10,000 cells/sample were counted, and results were evaluated by using the Cell Quest software (Becton Dickinson). The same protocol was used for staining of human neutrophils incubated with LL-37 (30 μg/ml) for 30 or 120 min.

The test system of assay [4] is human aortic smooth muscle cells. In words: Internucleosomal DNA fragmentation (Cell Death Detection ELISA). As to conditions: LL-37 30 μg/ml, 16 h, n = 7, P < 0.05. The protocol:
(§1) Confluent rat or human aorta smooth muscle cells cultured on 24-well plates were incubated in serum free DMEM for 16 h in the absence (control) or presence of LL-37 (10 and 30 μg/ml). Internucleosomal DNA fragmentation was measured using a Cell Death Detection ELISA Kit (Roche Molecular Biochemicals) according to the manufacturer's instructions. In short, the cells were lysed in the culture wells and the DNA fragments in the lysate were bound to a microtiter plate coated with monoclonal anti-histone antibodies. The bound DNA fragments were then detected by peroxidase-conjugated monoclonal anti-DNA antibodies and 2,2'-azino-di- [3-ethylbenzthiazoline sulfonate]. Optical density was measured at 415 nm and is expressed as % of untreated controls.
Background: In an ELISA, binding on a coated surface is turned into a signal by an enzyme label.

The test system of assay [5] is rat aorta smooth muscle cells. Described as above. As to conditions: 16 h, n = 7, P < 0.05. As to the method:
as §1

In assay [6] the test system is rat aorta smooth muscle cells. The assay is described as follows: Microscopy of cultured cells (Nomarski, DAPI, FITC-annexin V). As to conditions: for morphological changes: serum free DMEM. As to the method:
Rat aorta smooth muscle cells were grown on methanol-cleansed coverslips in 6-well plates and incubated for 2 or 5 h in serum free DMEM with/without LL-37 (10 or 30 μg/ml) or camptothecin (5 μg/ml, Sigma-Aldrich). After culture, the coverslips were washed with ice-cold PBS containing 1 mM Ca^2+ and the cells were then stained at room temperature for 20 min with FITC-annexin V (20 μg/ml, Roche Molecular Biochemicals, Mannheim, Germany) and 4'6-diamino-2-phenyliondole dihydrochloride (DAPI) nucleic acid stain (100 nM, Molecular probes, Eugene, OR, USA). Thereafter, the cells were fixed with 1 % paraformaldehyde (Becton Dickinson, Bedford MA, U.S.A) in ice-cold PBS containing 1 mM Ca^2+. Fixation was initiated on ice for 15 min and continued at room temperature for 45 min. Cover slips were then mounted using ProLong AntiFade Reagent (Molecular Probes). Visual inspection and recording of images was performed using a Nikon Eclipse TE300 inverted fluorescence microscope equipped with a Hamamatsu C4742-95 cooled CCD camera, using a Plan Apochromat 60 × objective.

Assay [7] deals with caspase-3 activity in rat aorta smooth muscle cells. The assay is described as follows: Caspase-3 activity (fluorometric immunosorbent enzyme assay, FIENA). As to conditions: LL-37 30 μg/ml, 1, 3 and 7 h, corrected for intact cells, n = 6, P < 0.05. As to the method: Confluent rat aorta smooth muscle cells cultured on 24-well plates were incubated for 1, 3 or 7 h in serum free DMEM in the absence (control) or presence of LL-37 (10 or 30 μg/ml). The caspase-3 activity was measured by using a fluorometric immunosorbent enzyme assay (FIENA, Roche Molecular Biochemicals) according to the manufacturer's instructions. Briefly, the caspase-3 from cellular lysates was captured by immobilized monoclonal anti-caspase-3 antibodies followed by addition of a substrate that is cleaved by caspase-3 generating a fluorescent compound. Fluorescence was then measured at 400 nm excitation and 505 nm emission. […] The caspase-3 activity values were therefore corrected in order to correspond to the fraction of intact cells using the formula […]
Where VIC is the caspase-3 activity of intact cells, VC is the caspase-3 activity of the sample, VL is the LDH activity of the sample and VLT is the total LDH activity of lysed cells. The caspase-3 activity is expressed as % of untreated controls.

With `CC[C@H](C)[C@H](NC(=O)[C@H](CCCCN)NC(=O)[C@H](CCC(=O)O)NC(=O)[C@H](CCCCN)NC(=O)[C@H](CO)NC(=O)[C@H](CCCCN)NC(=O)[C@H](CCCNC(=N)N)NC(=O)[C@H](Cc1ccccc1)NC(=O)[C@H](Cc1ccccc1)NC(=O)[C@H](CC(=O)O)NC(=O)CNC(=O)[C@H](CC(C)C)NC(=O)[C@@H](N)CC(C)C)C(=O)NCC(=O)N[C@@H](CCCCN)C(=O)N[C@@H](CCC(=O)O)C(=O)N[C@@H](Cc1ccccc1)C(=O)N[C@@H](CCCCN)C(=O)N[C@@H](CCCNC(=N)N)C(=O)N[C@H](C(=O)N[C@H](C(=O)N[C@@H](CCC(N)=O)C(=O)N[C@@H](CCCNC(=N)N)C(=O)N[C@H](C(=O)N[C@@H](CCCCN)C(=O)N[C@@H](CC(=O)O)C(=O)N[C@@H](Cc1ccccc1)C(=O)N[C@@H](CC(C)C)C(=O)N[C@@H](CCCNC(=N)N)C(=O)N[C@@H](CC(N)=O)C(=O)N[C@@H](CC(C)C)C(=O)N[C@H](C(=O)N1CCC[C@H]1C(=O)N[C@@H](CCCNC(=N)N)C(=O)N[C@H](C(=O)N[C@@H](CCC(=O)O)C(=O)N[C@@H](CO)C(=O)O)[C@@H](C)O)C(C)C)[C@@H](C)CC)C(C)C)[C@@H](C)CC` [LL-37], the “release of LDH into medium versus control” value in assay [1] is reported as “significantly increased”. The “staining with propidium iodide and FITC-annexin V” value in assay [2] was “weak staining”. In addition, in assay [3], the “increase in the propidium iodide fluorescence signal of the necrotic cells” value is on record as “about 1000 fold”. Also, the “increase in FITC-annexin V fluorescence” value in assay [3] (10 to 180 minutes) was found to be 15 fold. For the same molecule, the results for the “leftmost peak of FITC-annexin V fluorescence histogram” value in assay [3] (10 minutes) and in assay [3] (180 minutes) were “about 2 fluorescence units” and roughly 30 units, respectively. Besides, the “increase in propidium iodide staining of the viable cells” value in assay [3] (within 10 minutes) amounted to 10 fold. In addition, the “DNA fragmentation compared to controls” value in assay [4], in assay [5] (LL-37 10 μg/ml) and in assay [5] (LL-37 30 μg/ml) was “statistically significant DNA fragmentation” throughout. Moreover, the morphological changes entry is “only small and inconsistent morphological changes” in assay [6] (LL-37 10 μg/ml, not shown); “progressive cell shrinkage and a rough appearance of the cell membrane” in assay [6] (LL-37 30 μg/ml, 2 or 5 h). Besides, the “FITC-annexin V binding of plasma membrane (microscopy)” value in assay [6] (LL-37 30 μg/ml, 2 or 5 h) was “bound FITC-annexin V”. Further, the “nuclear appearance (DAPI stain)” value in assay [6] (LL-37 30 μg/ml, 2 or 5 h) is “nuclei of most cells appeared smaller with fragmented chromatin”. Also, the “caspase-3 activity versus untreated controls” value in assay [7] was “significant increase”.
`CC[C@@]1(O)C(=O)OCc2c1cc1n(c2=O)Cc2cc3ccccc3nc2-1` [camptothecin]: in assay [6] (camptothecin 5 μg/ml, not shown), the “cellular changes compared with those induced by LL-37 (30 μg/ml)” value is given as “similar”.

The values are drawn from article PMC1764755, “Human antimicrobial peptide LL-37 is present in atherosclerotic plaques and induces death of vascular smooth muscle cells: a laboratory study” (BMC Cardiovascular Disorders, 2006).
